ChEMBL document CHEMBL3217413, “Chemical space as a source for new drugs” (Medchemcomm, 2010)
Activity calls are given as the source filed them. The rule behind the calls is not given here.

Experiments:
[1] = target: Glutamate [NMDA] receptor; test: (§1) Inhibition of NMDA receptor glycine binding site (unknown origin); parameters: species or system Homo sapiens
[2] = target: Adrenergic receptor alpha-1 (Homo sapiens) (UniProt P35348+P25100+P35368); test: Inhibition of alpha1 adrenergic receptor (unknown origin) at 10 uM by radioligand displacement assay; type: protein assay
[3] = target: Glutamate [NMDA] receptor (Homo sapiens) (UniProt Q05586+Q12879+Q13224+O15399+O60391+Q14957+Q8TCU5); test: as §1
[4] = Inhibition of estrogen receptor (unknown origin); parameters: species or system Homo sapiens
[5] = tested on: Human immunodeficiency virus; test: Antiviral activity against HIV; type: functional, organism-based; details: Human immunodeficiency virus 1
[6] = tested on: Nucleic Acid; test: Inhibition of TAT/TAR RNA interaction in HIV1; type: nucleic-acid assay, Human immunodeficiency virus 1

SMILES	IC50 [1] [µM]	also measured
C[C@H](N)CC(=O)NCC(=O)O	28	–
OCc1ccccc1C1CCCNC1 (stereo not given)	–	inhibition [2]: > 50%
NC[C@H]1CNC(=O)C(=O)N1	–	inhibition [3]: inactive
C[C@@H](NCCN)C(=O)O	112	–
Oc1ccc(-c2cc3ccc(O)cc3s2)cc1 [RALOXIFENE CORE]	–	IC50 [4]: 0.34 µM
CC(C)n1c(O)nnc1Sc1cccc(C(F)(F)F)c1	–	IC50 [5]: 80 µM
CCOc1cccc(CN(c2cccc(F)c2)C2CCNCC2)c1	–	IC50 [6]: 500 µM

Continued, in another order:

IC50 [1] [µM]	SMILES	also measured
60	CCNCCC(=O)NCCC(=O)O	–
61	NCCCC(=O)NCC(=O)O	–
370	NC[C@@H]1NC(=O)CNC1=O	–
